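Following 48 hours of exposure in 96-well plates, responses at five concentrations were used to interpolate endpoints linearly. GI50 marks 50% less growth.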 Calls of active or inactive are those of the source. Rule as the data show it: active = GI50 up to about 1.1 µM and inactive = higher.
Tests used:
Experiment in all cases: NCI anticancer screen, dose series, 48 h
COLO 205 = tested on: COLO 205
RPMI-8226 = tested on: RPMI-8226
SK-MEL-28 = tested on: SK-MEL-28
ACHN = tested on: ACHN
EKVX = tested on: EKVX
HCT-116 = tested on: HCT-116
SN12C = tested on: SN12C
SW-620 = tested on: SW-620
OVCAR-5 = tested on: OVCAR-5
HOP-18 = tested on: HOP-18
HT-29 = tested on: HT-29
786-0 = tested on: 786-0
SNB-75 = tested on: SNB-75
SR = tested on: SR
HCT-15 = tested on: HCT-15
SK-MEL-5 = tested on: SK-MEL-5
MDA-N = tested on: MDA-N
DU-145 = tested on: DU-145
PC-3 = tested on: PC-3
Hs-578T = tested on: Hs-578T

SMILES	GI50 (COLO 205)	GI50 (RPMI-8226)	GI50 (SK-MEL-28)	GI50 (ACHN)	GI50 (EKVX)	GI50 (HCT-116)	GI50 (SN12C)	GI50 (SW-620)	GI50 (OVCAR-5)	GI50 (HOP-18)	GI50 (HT-29)	GI50 (786-0)	GI50 (SNB-75)	GI50 (SR)	GI50 (HCT-15) [µM]	GI50 (SK-MEL-5)	GI50 (MDA-N)	GI50 (DU-145)	GI50 (PC-3)	GI50 (Hs-578T)
O=C1CC(CC(=O)C2CCCCC2=O)C(=O)N1 (configuration not stated)	> 100 µM (inactive)	> 100 µM (inactive)	> 100 µM (inactive)	> 100 µM (inactive)	> 100 µM (inactive)	> 100 µM (inactive)	> 100 µM (inactive)	> 100 µM (inactive)	> 100 µM (inactive)	> 100 µM (inactive)	> 100 µM (inactive)	> 100 µM (inactive)	> 100 µM (inactive)	> 100 µM (inactive)						
O=C1CCC(c2ccccc2)C(O)(C(=O)O)C1 (configuration not stated)	> 100 µM (inactive)	> 100 µM (inactive)	> 100 µM (inactive)	> 100 µM (inactive)	> 100 µM (inactive)	> 100 µM (inactive)	> 100 µM (inactive)	> 100 µM (inactive)	> 100 µM (inactive)	> 100 µM (inactive)	> 100 µM (inactive)	> 100 µM (inactive)	> 100 µM (inactive)	> 100 µM (inactive)	> 100	> 100 µM (inactive)				
CC1=C(/C=C/C2=CC(=C\C(=O)O)/CC(C3=C(C)CCCC3(C)C)C2)C(C)(C)CCC1 (configuration not stated)	16.4 µM (inactive)	5.36 µM (inactive)	16 µM (inactive)	10.4 µM (inactive)	11.3 µM (inactive)	15 µM (inactive)	15.6 µM (inactive)	15 µM (inactive)	16.4 µM (inactive)	14 µM (inactive)	13.6 µM (inactive)	14.8 µM (inactive)	14.6 µM (inactive)	5.65 µM (inactive)		14.8 µM (inactive)				
CC(=O)O[C@]12CCCCC1C1(O)C(O)CCCCC12 (some centres not stated)	> 100 µM (inactive)	> 100 µM (inactive)	> 100 µM (inactive)	76 µM (inactive)	> 100 µM (inactive)	> 100 µM (inactive)	> 100 µM (inactive)	> 100 µM (inactive)		> 100 µM (inactive)	> 100 µM (inactive)	> 100 µM (inactive)	> 100 µM (inactive)	> 100 µM (inactive)	> 100	> 100 µM (inactive)				
O=C(Nc1cccc(Cc2cccc(NC(=O)c3ccccc3)c2)c1)c1ccccc1	> 100 µM (inactive)		41.7 µM (inactive)	28.2 µM (inactive)	23.3 µM (inactive)	50.6 µM (inactive)	19.5 µM (inactive)	> 100 µM (inactive)	> 100 µM (inactive)	34.3 µM (inactive)	> 100 µM (inactive)	26.9 µM (inactive)	10.5 µM (inactive)	> 100 µM (inactive)	89.3	25.1 µM (inactive)				
COc1cc(C2C(Cl)C(=O)N2n2cnc3ccccc3c2=O)ccc1O (configuration not stated)	> 100 µM (inactive)	60 µM (inactive)	88.7 µM (inactive)	> 100 µM (inactive)	> 100 µM (inactive)	> 100 µM (inactive)	89.5 µM (inactive)	> 100 µM (inactive)	> 100 µM (inactive)	56.6 µM (inactive)	> 100 µM (inactive)	> 100 µM (inactive)	26.1 µM (inactive)	83.6 µM (inactive)	87.3	> 100 µM (inactive)				
O=C1NC2(CCCC2)C2CCCCC12O (configuration not stated)	> 100 µM (inactive)	> 100 µM (inactive)	> 100 µM (inactive)	> 100 µM (inactive)	> 100 µM (inactive)	> 100 µM (inactive)	> 100 µM (inactive)	> 100 µM (inactive)	> 100 µM (inactive)	> 100 µM (inactive)	> 100 µM (inactive)	> 100 µM (inactive)	> 100 µM (inactive)	> 100 µM (inactive)	> 100	> 100 µM (inactive)				
CCOC(=O)N1C/C(=C\c2ccccc2)C(=O)/C(=C/c2ccccc2)C1	4.7 µM (inactive)	0.182 µM (active)	2.39 µM (inactive)	3.84 µM (inactive)	10.6 µM (inactive)	1.14 µM (inactive)	2.17 µM (inactive)	1.4 µM (inactive)	6.04 µM (inactive)	20.3 µM (inactive)	1.49 µM (inactive)	2.9 µM (inactive)	6.97 µM (inactive)	0.873 µM (active)	2.32	2.97 µM (inactive)	1.72 µM (inactive)	8.81 µM (inactive)	2.16 µM (inactive)	2.4 µM (inactive)

From ChEMBL document CHEMBL1201862, “PubChem BioAssay data set” (2004)
